Source: patent US4526989A, “1,4-Bis (substituted-amino)-5,8-dihydroxy-anthraquinones and leuco bases thereof” (priority 1979, dated 1985)
Like-named read-outs stand apart in the source and are kept apart here.

Experiments:
[1] = tested on: lymphocytic leukemia P388; assay: Lymphocytic leukemia P388 test (intraperitoneal administration); assay type: in vivo, DBA/2 mice
Summary of the method: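 DBA/2 mice, single sex, 5-6 per group, inoculated i.p. with 10^6 P388 leukemia cells. Compounds given i.p. at various doses on days 1, 5 and 9; survival followed 30 days, reporting median survival time and treated/control (T/C) survival ratio.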

melanotic melanoma B16 = assay: Melanotic Melanoma B16 test; assay type: in vivo, C57BC/6 mice; details: days 1 through 9
Summary of the method: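 C57BC/6 mice (10 per group) were implanted i.p. with B16 melanoma homogenate, then dosed i.p. on days 1–9 at various doses.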

[2] = 12.5 mg./kg. i.p., days 1, 5 and 9
[3] = 25 mg./kg. i.p., days 1, 5 and 9
[4] = 50 mg./kg. i.p., days 1, 5 and 9
[5] = 100 mg./kg. i.p., days 1, 5 and 9
[6] = 200 mg./kg. i.p., days 1, 5 and 9
[7] = Mus musculus, P388, ip, 12.5 mg./kg. i.p., days 1, 5 and 9, efficacy ≥125%, read-out: T/C × 100
[8] = Mus musculus, P388, ip, 25 mg./kg. i.p., days 1, 5 and 9, efficacy ≥125%, read-out: T/C × 100
[9] = Mus musculus, P388, ip, 50 mg./kg. i.p., days 1, 5 and 9, efficacy ≥125%, read-out: T/C × 100
[10] = Mus musculus, P388, ip, 100 mg./kg. i.p., days 1, 5 and 9, efficacy ≥125%, read-out: T/C × 100
[11] = Mus musculus, P388, ip, 200 mg./kg. i.p., days 1, 5 and 9, efficacy ≥125%, read-out: T/C × 100
[12] = Mus musculus, ip, 6 mg./kg. i.p., efficacy ≥125%, read-out: T/C × 100
[13] = Mus musculus, ip, 12.5 mg./kg. i.p., efficacy ≥125%, read-out: T/C × 100
[14] = Mus musculus, ip, 25 mg./kg. i.p., efficacy ≥125%, read-out: T/C × 100
[15] = Mus musculus, ip, 50 mg./kg. i.p., efficacy ≥125%, read-out: T/C × 100
[16] = 12 mg./kg. i.p., days 1, 5 and 9
[17] = Mus musculus, P388, ip, 12 mg./kg. i.p., days 1, 5 and 9, efficacy ≥125%, read-out: T/C × 100
[18] = Mus musculus, ip, 12 mg./kg. i.p., efficacy ≥125%, read-out: T/C × 100
[19] = Mus musculus, ip, 100 mg./kg. i.p., efficacy ≥125%, read-out: T/C × 100

Structure (SMILES)	Median Survival Time [1, 2]	Median Survival Time [1, 3]	Median Survival Time [1, 4]	Median Survival Time [1, 5]	Median Survival Time [1, 6]	response vs control in vivo at 12.5 mg/kg [1, 7]	response vs control in vivo at 25 mg/kg [1, 8]	response vs control in vivo at 50 mg/kg [1, 9]	response vs control in vivo at 100 mg/kg [1, 10]	response vs control in vivo at 200 mg/kg [1, 11]	Median Survival Time (melanotic melanoma B16; 6 mg./kg. i.p.)	Median Survival Time (melanotic melanoma B16; 12.5 mg./kg. i.p.)	Median Survival Time (melanotic melanoma B16; 25 mg./kg. i.p.)	Median Survival Time (melanotic melanoma B16; 50 mg./kg. i.p.)	response vs control in vivo at 6 mg/kg (melanotic melanoma B16; [12])	response vs control in vivo at 12.5 mg/kg (melanotic melanoma B16; [13])	response vs control in vivo at 25 mg/kg (melanotic melanoma B16; [14])	response vs control in vivo at 50 mg/kg (melanotic melanoma B16; [15])	Median Survival Time (melanotic melanoma B16; 12 mg./kg. i.p.)	response vs control in vivo at 12 mg/kg (melanotic melanoma B16; [18])	also measured
O=C1C2=C(NCCN3CCNCC3)CCC(NCCN3CCNCC3)=C2C(=O)c2c(O)ccc(O)c21 [Leuco-1,4-bis[2-(1-piperazinyl)ethylamino]-5,8-dihydroxyanthraquinone]	14.0 days	15.0 days	16.0 days	21.0 days	7.0 days	156%	167%	178%	233%	78%	22.0 days	26.0 days	30.5 days	34.5 days	129%	153%	179%	203%	–	–	Median Survival Time (melanotic melanoma B16; 3 mg./kg. i.p.): 20.5 days; response vs control in vivo at 3 mg/kg (melanotic melanoma B16; Mus musculus, ip, 3 mg./kg. i.p., efficacy ≥125%, read-out: T/C × 100): 121%
O=C1c2c(O)ccc(O)c2C(=O)c2c(NCCN3CCCC3)ccc(NCCN3CCCC3)c21 [1,4-Bis[2-(1-pyrrolidinyl)ethylamino]-5,8-dihydroxyanthraquinone]	–	21.0 days	23.0 days	24.0 days	–	–	191%	209%	218%	–	22.0 days	–	24.5 days	–	137%	–	153%	–	22.0 days	137%	Median Survival Time [1, 16]: 18.0 days; response vs control in vivo at 12 mg/kg [1, 17]: 164%
CNCCNCCNC1=C2C(=O)c3c(O)ccc(O)c3C(=O)C2=C(NCCNCCNC)CC1 [Leuco-1,4-bis[2-(2-methylaminoethylamino)ethylamino]-5,8-dihydroxyanthraquinone]	16.0 days	21.0 days	28.0 days	26.0 days	2.0 days	145%	191%	255%	236%	18%	–	39.5 days	35.0 days	12.5 days	–	232%	206%	73%	–	–	Median Survival Time ([1]; 6.2 mg./kg. i.p., days 1, 5 and 9): 15.0 days; response vs control in vivo at 6.2 mg/kg ([1]; Mus musculus, P388, ip, 6.2 mg./kg. i.p., days 1, 5 and 9, efficacy ≥125%, read-out: T/C × 100): 136%; Median Survival Time (melanotic melanoma B16; 6.2 mg./kg. i.p.): 28.5 days; response vs control in vivo at 6.2 mg/kg (melanotic melanoma B16; Mus musculus, ip, 6.2 mg./kg. i.p., efficacy ≥125%, read-out: T/C × 100): 168%
CCN(CC)CCNc1ccc(NCCN(CC)CC)c2c1C(=O)c1c(O)ccc(O)c1C2=O [1,4-Bis[(2-diethylaminoethyl)amino]-5,8-dihydroxyanthraquinone]	–	16.0 days	15.0 days	18.0 days	20.0 days	–	168%	158%	189%	210%	–	–	–	20.5 days	–	–	–	125%	–	–	Median Survival Time [1, 16]: 12.0 days; response vs control in vivo at 12 mg/kg [1, 17]: 126%
CC(CNC1=C2C(=O)c3c(O)ccc(O)c3C(=O)C2=C(NCC(C)N(C)C)CC1)N(C)C (centres unmarked) [Leuco-1,4-bis[2-dimethylaminopropylamino]-5,8-dihydroxyanthraquinone]	11.0 days	13.0 days	14.0 days	15.0 days	18.0 days	122%	144%	156%	167%	–	19.5 days	20.5 days	24.5 days	28.5 days	115%	121%	144%	168%	–	–	response vs control in vivo at 200 mg/kg ([1]; Mus musculus, P388, ip, read-out: T/C × 100): 200%; Median Survival Time (melanotic melanoma B16; 100 mg./kg. i.p.): 21.0 days; response vs control in vivo at 100 mg/kg (melanotic melanoma B16; [19]): 124%
O=C1C2=C(NCCN3CCCC3)CCC(NCCN3CCCC3)=C2C(=O)c2c(O)ccc(O)c21 [Leuco-1,4-bis[2-(1-pyrrolidinyl)ethylamino]-5,8-dihydroxyanthraquinone]	–	15.0 days	16.0 days	19.0 days	23.0 days	–	136%	145%	173%	209%	–	–	22.0 days	23.0 days	–	–	137%	144%	21.0 days	131%	–
NCCCCNC1=C2C(=O)c3c(O)ccc(O)c3C(=O)C2=C(NCCCCN)CC1 [Leuco-1,4-bis(4-aminobutylamino)-5,8-dihydroxyanthraquinone]	–	–	–	14.0 days	17.0 days	–	–	–	133%	162%	–	–	18.5 days	20.0 days	–	–	109%	118%	16.0 days	94%	Median Survival Time ([1]; 300 mg./kg. i.p., days 1, 5 and 9): 18.0 days; Median Survival Time ([1]; 400 mg./kg. i.p., days 1, 5 and 9): 20.0 days; response vs control in vivo at 300 mg/kg ([1]; Mus musculus, P388, ip, 300 mg./kg. i.p., days 1, 5 and 9, efficacy ≥125%, read-out: T/C × 100): 171%; response vs control in vivo at 400 mg/kg ([1]; Mus musculus, P388, ip, 400 mg./kg. i.p., days 1, 5 and 9, efficacy ≥125%, read-out: T/C × 100): 190%; Median Survival Time (melanotic melanoma B16; 100 mg./kg. i.p.): 21.0 days; response vs control in vivo at 100 mg/kg (melanotic melanoma B16; [19]): 124%
